Results from patent EP1383793B1 (priority 2000, dated 2001).
Where two headings read alike, the source gives them in different places. Residues, ends and D or L forms follow the SMILES beside them. No end group written: not given here. *: point of attachment. Biotin = O=C1N[C@H]2[C@H](CS[C@H]2CCCCC(=O)*)N1

Assays:
adipocytes = test: 3H-glucose uptake into adipocytes (fat cell assay, FFC); type: cell-based, Mouse; settings: Subjective ranking; basal and sub maximal insulin; includes series A
[1] = Precipitate in diluted peptide stock prior to adding to the fat cell assay; solubility under assay conditions; type: physicochemical; settings: diluted stock prior to adding to assay
[2] = biological target: T1, human insulin receptor (HIR) (Homo sapiens, UniProt P06213); test: 125I-insulin competition binding assay on solubilised purified receptor
T1 construct: made in house

[3] = biological target: human IGF-1 receptor (HIGF-1R) (Homo sapiens, UniProt P08069); test: 125I-IGF-1 competition binding assay on solubilised purified receptor
IGF-1R = biological target: T2, IGF-1R (Homo sapiens, UniProt P08069); test: IGF-1R peptide assay, time-resolved FRET, competition with biotinylated 20E2 (IC50); type: binding
T2 construct: Soluble IGF-1R was obtained from R&D Systems; purchased R&D Systems 391-GR/CF
From the text: Assays have been developed using Time-Resolved Fluorescence Resonance Energy Transfer (FRET). These assays are not radioactive, homogeneous (no wash steps), and can be rapidly carried out in 96- or 384-well microtiter plate format facilitating their use in high-throughput screening assays for small organic molecules.
The IGF-1R was labeled with Europium (Eu) by EG&G Wallac.
The Streptavidin-Allophycocynanin (SA-APC) was obtained from Prozyme Cat. # PJ25S.
• a. Preparation of the Assay Mix. […] This mixture was allowed to pre-incubate at RT in the dark for 1-2 h before competitor was added. • b. […] 100 µl of Buffer (TBS pH 8.0 + 0.1 % BSA) were dispensed to wells in columns 1 through 11. Competitors and Buffer were added to Column 12 wells so that the total volume is 150 µl. • c. […] Compounds are dissolved in 100% DMSO. Therefore, 100 µl of Buffer (TBS pH 8.0 + 0.1 % BSA) with 4% DMSO are dispensed to wells in columns 1 through 10. […] Compounds (6 µl) are added into 144 µl Buffer (No DMSO) to Column 12 wells. • d. Dilutions were performed across columns on the plate. Once competitors were dispensed into Column 12 and mixed, 50 µl of the solution Column 12 were transferred to wells in 11 and mixed. 50 µl of the Column 11 mixture was transferred to Column 10 wells. This was repeated until 50 µl of Column 3 mixture was transferred to Column 2 wells. Once accomplished to Column 2, 50 µl from Column 2 were removed and discarded. Column 1 wells were reserved for No Competitor Wells. 100 µl volume was therefore maintained across all columns. • e. 50 µl of the Assay Mix was dispensed into wells on a new 96-well microtiter plate. 50 µl from the Dilutions Plate were then added to this plate. • f. […] This covered plate was allowed to incubate at RT overnight. • g. […] Compounds begin at 200 µM in a working concentration of 2% DMSO. Controls also contained 2% DMSO.

T1 sequence (P06213 28-758 limits assumed): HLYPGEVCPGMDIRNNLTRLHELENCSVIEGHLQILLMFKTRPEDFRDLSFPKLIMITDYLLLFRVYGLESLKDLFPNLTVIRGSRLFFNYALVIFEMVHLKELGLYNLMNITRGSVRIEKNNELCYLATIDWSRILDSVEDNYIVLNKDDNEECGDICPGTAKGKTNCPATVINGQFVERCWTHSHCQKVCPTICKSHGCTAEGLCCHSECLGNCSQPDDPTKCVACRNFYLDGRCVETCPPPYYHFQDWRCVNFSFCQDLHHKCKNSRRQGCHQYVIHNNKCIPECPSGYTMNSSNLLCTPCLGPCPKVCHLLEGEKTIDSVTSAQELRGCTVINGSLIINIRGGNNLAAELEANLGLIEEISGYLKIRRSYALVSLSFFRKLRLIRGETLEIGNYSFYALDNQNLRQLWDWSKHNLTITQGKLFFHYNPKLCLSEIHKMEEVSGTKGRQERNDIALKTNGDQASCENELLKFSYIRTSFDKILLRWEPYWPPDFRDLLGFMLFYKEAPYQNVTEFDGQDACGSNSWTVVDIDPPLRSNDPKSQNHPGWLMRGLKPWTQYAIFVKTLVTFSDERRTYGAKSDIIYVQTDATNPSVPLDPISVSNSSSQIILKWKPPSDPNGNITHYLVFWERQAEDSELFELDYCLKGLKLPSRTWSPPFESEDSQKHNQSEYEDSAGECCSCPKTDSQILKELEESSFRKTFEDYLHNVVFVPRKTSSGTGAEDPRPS
T1 sequence (P06213 763-1382 limits assumed): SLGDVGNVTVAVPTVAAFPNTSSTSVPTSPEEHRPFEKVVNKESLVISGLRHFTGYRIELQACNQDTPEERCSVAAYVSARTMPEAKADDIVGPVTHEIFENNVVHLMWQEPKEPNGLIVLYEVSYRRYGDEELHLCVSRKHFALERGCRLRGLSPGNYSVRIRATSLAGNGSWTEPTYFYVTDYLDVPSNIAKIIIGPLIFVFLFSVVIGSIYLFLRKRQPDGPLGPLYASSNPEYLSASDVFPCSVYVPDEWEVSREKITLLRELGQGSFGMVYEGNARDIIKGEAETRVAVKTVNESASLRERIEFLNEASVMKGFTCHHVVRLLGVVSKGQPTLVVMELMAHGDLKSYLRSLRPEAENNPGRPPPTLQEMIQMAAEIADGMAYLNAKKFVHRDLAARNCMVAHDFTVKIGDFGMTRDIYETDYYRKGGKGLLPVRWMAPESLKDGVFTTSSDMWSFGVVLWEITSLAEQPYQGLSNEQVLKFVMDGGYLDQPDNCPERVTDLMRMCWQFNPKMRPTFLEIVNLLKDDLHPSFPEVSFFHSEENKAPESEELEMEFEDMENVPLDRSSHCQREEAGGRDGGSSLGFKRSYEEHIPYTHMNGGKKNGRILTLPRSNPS

Row | Compound | Kd ([2]; read-out: Kd (µM) HIR) [µM] | Kd [3] [µM] | IC50 (IGF-1R) [µM] | Kd ([2]; read-out: HIR affinity) [µM] | further results
1 | CC(C)C[C@H](NC(=O)[C@@H](NC(=O)[C@@H](N)CCCCN)C(C)C)C(=O)N[C@@H](CCC(N)=O)C(=O)N[C@@H](C)C(=O)N[C@@H](CCCNC(=N)N)C(=O)N[C@@H](Cc1c[nH]cn1)C(=O)NCC(=O)N[C@@H](CS)C(=O)N[C@@H](CC(=O)O)C(=O)N[C@@H](CO)C(=O)N[C@H](C(=O)N[C@@H](CO)C(=O)N[C@@H](CC(=O)O)C(=O)N[C@@H](CS)C(=O)N[C@@H](Cc1ccccc1)C(=O)N[C@@H](Cc1ccc(O)cc1)C(=O)N[C@@H](CCC(=O)O)C(=O)N[C@@H](Cc1c[nH]c2ccccc12)C(=O)N[C@@H](Cc1ccccc1)C(=O)N[C@@H](C)C(=O)N[C@@H](CCCCN)C(=O)N[C@@H](CCCCNC(=O)CCCC[C@@H]1SC[C@@H]2NC(=O)N[C@@H]21)C(N)=O)C(C)C [Clone D102] (H-KVLQARHGCDSVSDCFYEWFAKK(Biotin)-NH2; N-terminus assumed) |  |  |  |  | Resp. (adipocytes): 0; Comments (precipitation) [1]: Precipitates
2 | CC(C)C[C@H](NC(=O)[C@H](CCC(N)=O)NC(=O)[C@H](CCC(N)=O)NC(=O)[C@H](CO)NC(=O)[C@H](CCCNC(=N)N)NC(=O)[C@H](CS)NC(=O)[C@H](CC(N)=O)NC(=O)[C@H](Cc1c[nH]c2ccccc12)NC(=O)[C@H](Cc1ccccc1)NC(=O)[C@@H](NC(=O)[C@@H](N)CCCCN)C(C)C)C(=O)N[C@@H](CC(=O)O)C(=O)N[C@@H](Cc1ccccc1)C(=O)N[C@@H](Cc1ccc(O)cc1)C(=O)N[C@@H](CCC(=O)O)C(=O)N[C@@H](Cc1c[nH]c2ccccc12)C(=O)N[C@@H](Cc1ccccc1)C(=O)N[C@@H](CCC(=O)O)C(=O)N[C@@H](CCC(N)=O)C(=O)N[C@@H](C)C(=O)N[C@@H](C)C(=O)N[C@@H](CCCCN)C(=O)N[C@@H](CCCCNC(=O)CCCC[C@@H]1SC[C@@H]2NC(=O)N[C@@H]21)C(N)=O [Clone D106] (H-KVFWNCRSQQLDFYEWFEQAAKK(Biotin)-NH2) | 0.97 | 6.2 |  |  | 
3 | CC(C)C[C@H](NC(=O)[C@H](C)NC(=O)[C@H](C)NC(=O)[C@H](CCC(N)=O)NC(=O)[C@@H]1CCCN1C(=O)[C@@H](NC(=O)[C@@H](NC(=O)[C@H](Cc1ccc(O)cc1)NC(=O)[C@H](Cc1c[nH]cn1)NC(=O)[C@H](CO)NC(=O)[C@H](CCC(=O)O)NC(=O)[C@H](CC(C)C)NC(=O)[C@@H](N)CCCCN)C(C)C)C(C)C)C(=O)N[C@@H](CC(=O)O)C(=O)N[C@@H](CCCNC(=N)N)C(=O)N[C@@H](CC(C)C)C(=O)N[C@@H](Cc1ccccc1)C(=O)N[C@@H](Cc1ccc(O)cc1)C(=O)N[C@@H](CO)C(=O)N[C@@H](Cc1c[nH]c2ccccc12)C(=O)N[C@@H](Cc1ccccc1)C(=O)N[C@@H](CO)C(=O)N[C@@H](CCCCN)C(=O)N[C@@H](CCCCNC(=O)CCCC[C@@H]1SC[C@@H]2NC(=O)N[C@@H]21)C(N)=O [Clone D107] (H-KLESHYVVPQAALDRLFYSWFSKK(Biotin)-NH2) | 1.1 | 9.7 |  |  | 
4 | CC(C)C[C@H](NC(=O)[C@H](CCC(N)=O)NC(=O)[C@H](CCCNC(=N)N)NC(=O)[C@H](CO)NC(=O)[C@H](Cc1ccccc1)NC(=O)[C@H](Cc1c[nH]c2ccccc12)NC(=O)CNC(=O)[C@H](Cc1ccc(O)cc1)NC(=O)[C@H](Cc1ccccc1)NC(=O)[C@@H](N)CCCCN)C(=O)N[C@@H](CO)C(=O)N[C@@H](CC(C)C)C(=O)N[C@H](C(=O)N1CCC[C@H]1C(=O)N[C@@H](CCCNC(=N)N)C(=O)N[C@@H](CC(=O)O)C(=O)N[C@@H](CC(=O)O)C(=O)N[C@@H](Cc1c[nH]c2ccccc12)C(=O)NCC(=O)N[C@@H](CC(C)C)C(=O)N1CCC[C@H]1C(=O)N[C@@H](CCCCN)C(=O)N[C@@H](CCCCNC(=O)CCCC[C@@H]1SC[C@@H]2NC(=O)N[C@@H]21)C(N)=O)[C@@H](C)O [Clone D108] (H-KFYGWFSRQLSLTPRDDWGLPKK(Biotin)-NH2) | 2.3 | 19 |  |  | 
5 | CC(C)C[C@H](NC(=O)CNC(=O)[C@H](CC(=O)O)NC(=O)[C@H](CCC(N)=O)NC(=O)[C@H](CCCCN)NC(=O)[C@H](CC(N)=O)NC(=O)[C@H](CO)NC(=O)[C@@H](NC(=O)[C@H](CC(C)C)NC(=O)CNC(=O)[C@@H]1CCCN1C(=O)[C@H](C)NC(=O)[C@H](CO)NC(=O)[C@@H](N)CCCCN)C(C)C)C(=O)N[C@@H](Cc1ccccc1)C(=O)N[C@@H](Cc1ccc(O)cc1)C(=O)N[C@@H](CO)C(=O)N[C@@H](Cc1c[nH]c2ccccc12)C(=O)N[C@@H](Cc1ccccc1)C(=O)N[C@@H](CCCNC(=N)N)C(=O)N[C@@H](CCC(=O)O)C(=O)N[C@@H](CCCCN)C(=O)N[C@@H](CCCCNC(=O)CCCC[C@@H]1SC[C@@H]2NC(=O)N[C@@H]21)C(N)=O [Clone D109] (H-KSAPGLVSNKQDGLFYSWFREKK(Biotin)-NH2) | 3.6 | 12 |  |  | 
6 | CC(C)[C@H](NC(=O)[C@H](Cc1ccccc1)NC(=O)[C@H](Cc1c[nH]c2ccccc12)NC(=O)[C@H](CC(=O)O)NC(=O)[C@H](Cc1ccc(O)cc1)NC(=O)[C@H](Cc1ccccc1)NC(=O)[C@H](CC(N)=O)NC(=O)[C@H](CCCCN)NC(=O)[C@H](C)NC(=O)[C@@H](N)CO)C(=O)N[C@@H](CCCCN)C(=O)N[C@@H](CCCCNC(=O)CCCC[C@@H]1SC[C@@H]2NC(=O)N[C@@H]21)C(N)=O [Clone D114] (H-SAKNFYDWFVKK(Biotin)-NH2) | 8.1 | > 20 |  |  | 
7 | CSCC[C@H](NC(=O)[C@H](Cc1ccccc1)NC(=O)[C@H](Cc1c[nH]c2ccccc12)NC(=O)[C@H](CC(=O)O)NC(=O)[C@H](Cc1ccc(O)cc1)NC(=O)[C@H](Cc1ccccc1)NC(=O)[C@H](CC(N)=O)NC(=O)[C@H](CCCCN)NC(=O)[C@H](CC(=O)O)NC(=O)[C@H](C)N)C(=O)N[C@@H](C)C(=O)N[C@@H](C)C(=O)N[C@@H](CCCCN)C(=O)N[C@@H](CCCCNC(=O)CCCC[C@@H]1SC[C@@H]2NC(=O)N[C@@H]21)C(N)=O [Clone D115] (H-ADKNFYDWFMAAKK(Biotin)-NH2) | 8.1 | > 20 |  |  | 
8 | CC(C)[C@H](NC(=O)[C@H](Cc1ccccc1)NC(=O)[C@H](Cc1c[nH]c2ccccc12)NC(=O)[C@H](CC(=O)O)NC(=O)[C@H](Cc1ccc(O)cc1)NC(=O)[C@H](Cc1ccccc1)NC(=O)[C@H](CC(N)=O)NC(=O)[C@H](CCC(=O)O)NC(=O)[C@H](Cc1c[nH]cn1)NC(=O)[C@H](Cc1ccccc1)NC(=O)[C@@H](N)CCCCN)C(=O)N[C@@H](CCCNC(=N)N)C(=O)N[C@@H](CCC(N)=O)C(=O)N[C@H](C(=O)N[C@@H](CO)C(=O)N[C@@H](CCCCN)C(=O)N[C@@H](CCCCNC(=O)CCCC[C@@H]1SC[C@@H]2NC(=O)N[C@@H]21)C(N)=O)C(C)C [Clone D117K] | 0.82 | 9.1 |  |  | 
9 | TFYSCLASLLTGTPQPNRGPWERCR [20C-3-G3-IGFR] |  |  | 0.184 |  | 

Second part, led by results:

Row | Kd ([2]; read-out: Kd (µM) HIR) [µM] | Kd [3] [µM] | IC50 (IGF-1R) [µM] | Kd ([2]; read-out: HIR affinity) [µM] | Compound | further results
10 |  |  | 5.62 |  | CSCC[C@H](NC(=O)[C@H](CC(C)C)NC(=O)[C@H](CCCNC(=N)N)NC(=O)[C@H](CC(=O)O)NC(=O)[C@H](CC(C)C)NC(=O)[C@H](C)NC(=O)[C@H](CC(=O)O)NC(=O)[C@@H](N)CC(C)C)C(=O)N[C@@H](CCCNC(=N)N)C(=O)N[C@@H](Cc1ccc(O)cc1)C(=O)N[C@@H](Cc1ccccc1)C(=O)N[C@@H](CCC(=O)O)C(=O)N[C@@H](CCC(=O)O)C(=O)N[C@@H](CCCNC(=N)N)C(=O)N1CCC[C@H]1C(=O)N[C@@H](CO)C(=O)N[C@@H](CC(C)C)C(N)=O [Clone S173] | 
11 |  |  | 1.46 | 16 | CC(C)C[C@H](NC(=O)[C@@H]1CCCN1)C(=O)N[C@@H](C)C(=O)N[C@@H](CCC(=O)O)C(=O)N[C@@H](CC(C)C)C(=O)N[C@@H](Cc1c[nH]c2ccccc12)C(=O)N[C@@H](C)C(=O)N[C@@H](Cc1ccc(O)cc1)C(=O)N[C@@H](Cc1ccccc1)C(=O)N[C@@H](CCC(=O)O)C(=O)N[C@@H](Cc1c[nH]cn1)C(=O)N[C@@H](CO)C(=O)N[C@@H](CCC(=O)O)C(=O)N[C@@H](CCC(N)=O)C(=O)NCC(=O)N[C@@H](CCCNC(=N)N)C(=O)N[C@@H](CO)C(=O)N[C@@H](CO)C(=O)N[C@@H](C)C(=O)N[C@@H](Cc1c[nH]cn1)C(N)=O [Clone S174] | 
12 |  |  | ~100 | > 20 | AFYDWFAKK-NH2 [Clone S167] | 
13 |  |  | 2.04 | 2.7 | EHWNTVDPFYFTLFEWLRESG-NH2 [Clone S177] | 
14 |  |  | 0.24 | 0.13 | EHWNTVDPFYQYFSELLRESG-NH2 [Clone S178] | 
15 |  |  | 0.418 | 0.47 | NGVERAGTGDNFYDWFVAQLH-NH2 [Clone S176] | 
16 |  |  | 5.35 | 0.54 | QSDSGTVHDRFYGWFRDTWAS-NH2 [Clone S179] | 
